Source: US20240425491A1, “HETEROARYL COMPOUNDS USEFUL IN THE TREATMENT OF COGNITIVE DISORDERS” (University College Cardiff Consultants Limited, priority 2021, published 2024)

Legend:
rat brain α5-GABAARs = target: T1, rat brain α5-GABAARs (Rattus norvegicus, UniProt P18508+P19969); test: In vivo brain receptor occupancy assay ([3H]L-655,708 binding)
T1 construct: from tissue; host or cells: forebrain of male Sprague-Dawley rats, dosed in vivo
Description: The occupancy of rat brain benzodiazepine binding sites by compound was measured by its ability to inhibit the in vivo binding of [^3H] L-655,708. This radioligand is selective for the benzodiazepine site of GABAA receptors containing an α5 subunit (Quirk et al. 2001, Journal of Neurochemistry, 77 445-51) and has been used previously to measure in vivo α5-GABAAR occupancy (Atack et al. 2005, Neuropharmacology, 49 220-229).
[…] To block all benzodiazepine binding sites and therefore define the level of non-specific binding of [^3H] […]
Animals were then killed by stunning and decapitation, the whole brain was rapidly removed, the cerebellum and brainstem were discarded, leaving the forebrain which was weighed and homogenised in 10 volumes of ice-cold homogenising buffer (10 mM potassium phosphate buffer containing 100 mM KCl, pH 7.4). Aliquots of homogenate (500 μL) were then added directly to scintillation vials (total radioactivity) or filtered and washed with 5 ml Tris-HCL buffer (50 mM, pH 7.4) over Whatman glass microfiber GF/B filters. Washed filters were then placed in scintillation vials (three filters per vial) and scintillation fluid was added to all vials, which were then counted on a Perkin-Elmer Tricarb 2900TR scintillation counter (membrane-bound radioactivity). […]

[1] = system: mouse hippocampal brain slices (LTP suppressed by etomidate); test: Electrophysiology in hippocampal slices - long term potentiation assay
[2] = target: T2, human recombinant GABAAR containing α5β3γ2 subunits (benzodiazepine site) (Homo sapiens, UniProt P18507+P31644); test: In vitro radioligand binding assay (α5-GABAAR Ki); details: inhibition of [3H]Ro15-1788 binding, membranes of L(tk−) cells expressing human α5β3γ2; read-out: α5-GABAAR Ki
T2 construct: expressed in transfected cells; host or cells: mouse L(tk−) cells, dexamethasone-inducible vector pMSGneo
T2 sequence (P31644 32-462): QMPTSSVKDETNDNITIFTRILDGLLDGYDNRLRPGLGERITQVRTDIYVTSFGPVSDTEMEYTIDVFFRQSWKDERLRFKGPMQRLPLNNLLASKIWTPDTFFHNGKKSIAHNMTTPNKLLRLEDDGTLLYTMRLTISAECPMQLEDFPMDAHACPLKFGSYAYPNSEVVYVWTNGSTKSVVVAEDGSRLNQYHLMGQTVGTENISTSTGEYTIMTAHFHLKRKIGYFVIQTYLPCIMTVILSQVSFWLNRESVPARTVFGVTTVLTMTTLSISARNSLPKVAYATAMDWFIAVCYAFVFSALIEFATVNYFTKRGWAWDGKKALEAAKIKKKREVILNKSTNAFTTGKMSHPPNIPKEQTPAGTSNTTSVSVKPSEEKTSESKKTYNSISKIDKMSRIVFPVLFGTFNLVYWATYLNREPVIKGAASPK
T2 sequence (P28472 26-473 partner): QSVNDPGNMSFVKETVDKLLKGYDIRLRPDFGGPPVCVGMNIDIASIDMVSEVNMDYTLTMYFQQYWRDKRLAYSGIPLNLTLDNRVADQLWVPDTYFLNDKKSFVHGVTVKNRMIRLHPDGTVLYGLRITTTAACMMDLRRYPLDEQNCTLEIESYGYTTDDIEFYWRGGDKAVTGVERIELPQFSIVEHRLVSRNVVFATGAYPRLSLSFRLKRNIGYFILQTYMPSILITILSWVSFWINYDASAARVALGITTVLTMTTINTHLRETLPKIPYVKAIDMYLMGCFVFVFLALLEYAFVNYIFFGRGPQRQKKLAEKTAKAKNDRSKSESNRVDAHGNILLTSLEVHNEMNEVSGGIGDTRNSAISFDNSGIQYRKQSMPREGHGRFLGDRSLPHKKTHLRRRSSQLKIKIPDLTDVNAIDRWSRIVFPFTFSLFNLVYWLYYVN
T2 sequence (P18507 40-475): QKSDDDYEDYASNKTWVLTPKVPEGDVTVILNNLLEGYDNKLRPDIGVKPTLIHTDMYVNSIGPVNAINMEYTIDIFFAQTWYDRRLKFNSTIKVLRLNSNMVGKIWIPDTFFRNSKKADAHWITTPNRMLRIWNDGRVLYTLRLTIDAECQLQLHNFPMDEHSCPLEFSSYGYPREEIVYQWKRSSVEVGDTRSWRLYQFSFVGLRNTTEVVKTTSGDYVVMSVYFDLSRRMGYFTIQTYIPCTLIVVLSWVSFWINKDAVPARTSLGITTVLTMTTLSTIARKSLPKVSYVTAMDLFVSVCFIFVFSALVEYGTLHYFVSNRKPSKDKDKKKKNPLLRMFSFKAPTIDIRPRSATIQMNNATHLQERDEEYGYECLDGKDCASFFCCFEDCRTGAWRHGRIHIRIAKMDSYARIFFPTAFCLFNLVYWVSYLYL
In short: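 Membranes from mouse L(tk^−) cells stably expressing human α5β3γ2 GABAAR incubated 1 h at 4° C with 4 nM [^3H]Ro15-1788 and test compound; nonspecific binding with 1 μM TP003. Filter-bound radioactivity counted; Ki from IC50 by Cheng-Prusoff using measured Kd.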

T1 sequence (P19969 32-464 limits assumed): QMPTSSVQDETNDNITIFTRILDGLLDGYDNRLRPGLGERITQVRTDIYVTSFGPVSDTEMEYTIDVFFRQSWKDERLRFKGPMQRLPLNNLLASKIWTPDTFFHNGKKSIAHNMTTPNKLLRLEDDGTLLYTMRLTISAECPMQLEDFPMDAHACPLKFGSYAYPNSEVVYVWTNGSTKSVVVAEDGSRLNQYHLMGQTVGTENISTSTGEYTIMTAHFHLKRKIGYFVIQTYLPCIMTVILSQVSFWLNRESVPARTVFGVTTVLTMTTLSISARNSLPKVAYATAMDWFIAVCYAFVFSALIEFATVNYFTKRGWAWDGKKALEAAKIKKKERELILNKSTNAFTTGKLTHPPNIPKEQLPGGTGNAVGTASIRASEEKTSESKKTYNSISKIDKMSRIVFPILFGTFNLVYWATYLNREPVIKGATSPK
T1 sequence (P18508 39-466): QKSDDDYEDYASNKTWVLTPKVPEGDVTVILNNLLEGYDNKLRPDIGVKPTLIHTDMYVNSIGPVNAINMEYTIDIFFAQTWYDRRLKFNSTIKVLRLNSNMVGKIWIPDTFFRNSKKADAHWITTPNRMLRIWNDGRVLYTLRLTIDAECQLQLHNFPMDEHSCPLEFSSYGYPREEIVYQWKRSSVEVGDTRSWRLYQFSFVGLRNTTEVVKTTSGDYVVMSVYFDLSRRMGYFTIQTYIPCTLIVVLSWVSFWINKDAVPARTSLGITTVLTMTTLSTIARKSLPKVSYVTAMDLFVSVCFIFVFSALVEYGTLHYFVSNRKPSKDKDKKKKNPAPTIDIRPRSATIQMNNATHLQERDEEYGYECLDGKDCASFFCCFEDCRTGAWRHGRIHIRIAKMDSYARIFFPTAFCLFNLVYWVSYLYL

occupancy of rat brain α5-GABAARs, dependence on dose (rat brain α5-GABAARs; 3 to 30 mg/kg p.o., FIG. 3): dose-dependent
receptor occupancy at 10 mg/kg (rat brain α5-GABAARs; po, 10 mg/kg p.o., inhibition of in vivo [3H]L655,708 binding, FIG. 3, read-out: occupancy of rat brain α5 GABAA receptors): 77%
Ki [2]: 2.9 nM
SMILES: COc1nc(-n2ccnc2)ccc1NC(=O)c1c(-c2ccccc2)noc1C [Example 1, N-(6-Imidazol-1-yl-2-methoxy-3-pyridyl)-5-methyl-3-phenyl-isoxazole-4-carboxamide]
magnitude of LTP (fEPSP slope as % of control fEPSPs prior to 4-TBS vs time) ([1]; 1 μM co-added with etomidate 3 μM, n=6, FIG. 2A): rescued
fEPSP slope at 50-60 min post-delivery of the 4-TBS ([1]; co-incubation with etomidate, one-way ANOVA, post-hoc Tukey, p<0.05, FIG. 2B): significantly increased fEPSP slope
